pIC50: −log10 of the molar value. Like-named read-outs stand apart in the source and are kept apart here.

Data set [1] deals with T1, human ether-a-go-go-related gene (hERG) voltage-gated potassium channel (Homo sapiens, UniProt Q12809).
Protocol: (§3) A conventional patch-clamp technique was used to determine inhibitory effects on hERG. Human embryonic kidney cells (HEK-293) stably transfected with human hERG cDNA were plated on collagen-coated 35-mm cell culture dishes at low density for 1-7 days. For single-cell patch-clamp recording, the intracellular solution contained 130 mM KCl, 10 mM NaCl, 1 mM MgCl2, 10 mM EGTA, 5 mM MgATP, and 10 mM HEPES (pH adjusted to 7.2 with KOH). The extracellular solution contained acellular Solution (mM): 137 mM NaCl, 4 mM KCl, 1.8 mM CaCl2, 1 mM MgCl2, 10 mM D(+)-Glucose, and 10 mM HEPES (pH adjusted to 7.4 with NaOH). All measurements were performed at room temperature.
(§4) After cell capture, a pulse protocol was implemented that involved stepping from a holding potential of −80 mV to +40 mV for 4 s to inactivate hERG channels. The membrane voltage was then stepped back to −50 mV for 4 s to evoke a tail current prior to returning to the holding potential. This sequence was repeated with an inter-pulse interval of 20 s. […] Evoked peak tail current amplitudes were continuously monitored throughout the experiment. Each compound was applied from low to high concentrations sequentially to the same cell for five minutes.
(§5) The percent inhibition of hERG channel was calculated by comparing the tail current amplitude before and after application of the compound, the current difference being normalized to control. The amplitude of the hERG peak tail current was calculated by measuring the tail current on stepping to −50 mV. The current was measured before and after each compound addition. […] Percent inhibition values were used to calculate the IC50 for each tested compound.
Data set [2] has as its system MRL/lpr mice. Nature of the data set: Blood urea nitrogen and creatinine concentration in plasma of MRL/lpr mice. The data set is classed as in vivo. The settings on record: end of study; for creatinine concentration in plasma: FIG. 4B. As for the experimental part:
(§1) See Furukawa et al., 1996, J. Invest. Dermatol. 107; 95-100; Furukawa et al., 2009, Autoimmun. Rev. 8:495-499; and Shimomatsu et al., 2016, Mod. Rheumatol. 26:744-748. […] Animals were given water and food ad-libitum.
(§2) Dosing volumes were kept consistent at 10 mL/kg.
Plasma was prepared from blood samples collected at the end of the study. They were analyzed for blood urea nitrogen (BUN) level and creatinine concentration using a FUJI DRI-CHEM 4000i instrument as directed by the manufacturer. Elevated BUN and creatinine levels indicate compromised kidney function.

The subject of data set [3] is IL-17 production in human peripheral blood mononuclear cells (PBMC). Put plainly: IL-17 production in PMA/ionomycin-stimulated PBMC (ELISA). The format is cell-based. The following applies: for (%) inhibition / inhibition at 5 µM / inhibition at 25 µM / inhibition at 50 µM / inhibition at 100 µM: IL-17 synthesis; for IL-17 pg/mL (mean ± SD): n = 3; for inhibition at 5 µM / inhibition at 25 µM / inhibition at 50 µM / inhibition at 100 µM: PBMC. As for the experimental part:
Hydroxychloroquine (HCQ) and its pure optical isomers S-hydroxychloroquine (S-HCQ; enantiomeric excess of 99.0%) and R-hydroxychloroquine (R-HCQ; enantiomeric excess of 98.3%) were tested in an in vitro pharmacodynamic assay to determine their efficacy at inhibiting interleukin 17 (IL-17) production in human peripheral blood mononuclear cells (PBMC) stimulated with phorbol myristate acetate (PMA) and ionomycin.
Cells were cultured at 37° C. with 5% CO2 in RPMI-1640 medium (Gibco, 11875-093) supplemented with 10% Fetal Bovine Serum (Gibco, 10437-028), 10 mM HEPES (Gibco, 15630-080), and 100 U/mL Penicillin/Streptomycin (Gibco, 15140-122).
PBMC were seeded at a density of 10^6 cells/ml in each well of a 96-well round bottom microplate (Corning, 7007) then stimulated with 25 ng/ml PMA and 1 μg/ml ionomycin in the absence and presence of 25 μM, 50 μM, or 100 μM HCQ, S-HCQ or R-HCQ each dissolved in ethanol. The final concentration of ethanol in the culture medium was 0.75%. PBMC treated with 5 μM methylprednisolone served as a positive control.
After incubation for 48 or 72 hours, the cell culture supernatants were collected and stored at −80° C. until analysis. The levels of IL-17 induced by PMA/ionomycin-stimulated PBMC were analyzed using human IL-17 Quantikine ELISA Kit (R & D system, D1700) according to product information.
For orientation: In an ELISA, binding on a coated surface is turned into a signal by an enzyme label.

Data set [4] deals with MRL/lpr mice. Nature of the data set: Survival of treated MRL/lpr mice. The data set is classed as in vivo. The following applies: observed 70-80 days. On the procedure:
as §1, §2
The number of live and dead mice was recorded each day beginning from the first dosing day at age 15 weeks.

Data set [5] has as its system MRL/lpr mice. Put plainly: Skin lesions in treated MRL/lpr mice. The format is in vivo. The following applies: for mean score of skin lesions versus time (onset of skin inflammation and lesions): HCQ and R-HCQ, FIG. 3A. On the procedure: as §1, §2
Inflammation and skin lesions in the MRL/lpr mice were scored twice per week from the regions of dorsal neck, forehead, snout, and ears using a previously described scoring scale. See Keil et al., 2016, Arthritis Res. Ther. 18:243. Briefly, animals with no skin lesions were scored as 0, those having minimal hair loss with redness and a few scattered lesions were scored as 1, and those with redness, scabbing, and hair loss with a small area of involvement were scored as 2.
The mean score of skin lesions in each group from Day 68 to Day 111 for vehicle and low dose groups and from Day 68 to Day 90 for high dose groups after first dosing were plotted and are shown in FIG. 3A.
The data was reanalyzed by comparing the average skin lesion scores for each treatment over the entire test period. The skin lesion scores from day 68 to day 111 after initial dosing were averaged for the vehicle and the low dose groups and compared, as shown in FIG. 3B. The skin lesion scores from day 68 to day 90 after initial dosing were averaged for the vehicle and the high dose groups and compared, as shown in FIG. 3C.

Data set [6] deals with T1, human ether-a-go-go-related gene (hERG) voltage-gated potassium channel. Put plainly: In vitro cardiotoxicity assay: hERG patch-clamp in HEK-293 cells.
Protocol: as §3, §4, §5
Data set [7] is described as follows: Body weight of treated MRL/lpr mice.
Protocol: Pharmacodynamics of HCQ, S-HCQ, and R-HCQ was examined in MRL/lpr mice, a model for human cutaneous lupus erythematosus. […] Eight-week old MRL/lpr mice, were purchased from Jackson Laboratory (ME, USA) and maintained on a 12 h light and dark cycle with constant temperature and humidity control. Animals were given water and food ad-libitum.
Groups of 14-15 mice were treated starting at the age of −15 weeks old with vehicle (10% EtOH in PBS), with low dose (20 mg/kg) or high dose (40 mg/kg) HCQ, S-HCQ, or R-HCQ. Mice in the vehicle and low dose groups were treated orally once daily for 16 weeks from age 15 to 31 weeks. Mice in the high dose groups were treated orally once daily for 14 weeks from age 15 to 29 weeks. Dosing volumes were kept consistent at 10 mL/kg.
MRL/lpr mice treated with vehicle or with 20 mg/kg HCQ, S-HCQ, or R-HCQ were weighed once per week from day 0 (initial day of dosing) to day 111. Animals in the 40 mg/kg groups were weighed daily from day 0 to day 90.
Where [8] appears, read: 25 μM, 48 h, PMA/ionomycin-stimulated PBMC.
Setting [9] is: 25 μM, 72 h, PMA/ionomycin-stimulated PBMC.
Where [10] appears, read: 50 μM, 48 h, PMA/ionomycin-stimulated PBMC.
Where [11] appears, read: 50 μM, 72 h, PMA/ionomycin-stimulated PBMC.
Setting [12] is: 100 μM, 48 h, PMA/ionomycin-stimulated PBMC.
[13] abbreviates: 100 μM, 72 h, PMA/ionomycin-stimulated PBMC.

T1 sequence (Q12809 whole entry): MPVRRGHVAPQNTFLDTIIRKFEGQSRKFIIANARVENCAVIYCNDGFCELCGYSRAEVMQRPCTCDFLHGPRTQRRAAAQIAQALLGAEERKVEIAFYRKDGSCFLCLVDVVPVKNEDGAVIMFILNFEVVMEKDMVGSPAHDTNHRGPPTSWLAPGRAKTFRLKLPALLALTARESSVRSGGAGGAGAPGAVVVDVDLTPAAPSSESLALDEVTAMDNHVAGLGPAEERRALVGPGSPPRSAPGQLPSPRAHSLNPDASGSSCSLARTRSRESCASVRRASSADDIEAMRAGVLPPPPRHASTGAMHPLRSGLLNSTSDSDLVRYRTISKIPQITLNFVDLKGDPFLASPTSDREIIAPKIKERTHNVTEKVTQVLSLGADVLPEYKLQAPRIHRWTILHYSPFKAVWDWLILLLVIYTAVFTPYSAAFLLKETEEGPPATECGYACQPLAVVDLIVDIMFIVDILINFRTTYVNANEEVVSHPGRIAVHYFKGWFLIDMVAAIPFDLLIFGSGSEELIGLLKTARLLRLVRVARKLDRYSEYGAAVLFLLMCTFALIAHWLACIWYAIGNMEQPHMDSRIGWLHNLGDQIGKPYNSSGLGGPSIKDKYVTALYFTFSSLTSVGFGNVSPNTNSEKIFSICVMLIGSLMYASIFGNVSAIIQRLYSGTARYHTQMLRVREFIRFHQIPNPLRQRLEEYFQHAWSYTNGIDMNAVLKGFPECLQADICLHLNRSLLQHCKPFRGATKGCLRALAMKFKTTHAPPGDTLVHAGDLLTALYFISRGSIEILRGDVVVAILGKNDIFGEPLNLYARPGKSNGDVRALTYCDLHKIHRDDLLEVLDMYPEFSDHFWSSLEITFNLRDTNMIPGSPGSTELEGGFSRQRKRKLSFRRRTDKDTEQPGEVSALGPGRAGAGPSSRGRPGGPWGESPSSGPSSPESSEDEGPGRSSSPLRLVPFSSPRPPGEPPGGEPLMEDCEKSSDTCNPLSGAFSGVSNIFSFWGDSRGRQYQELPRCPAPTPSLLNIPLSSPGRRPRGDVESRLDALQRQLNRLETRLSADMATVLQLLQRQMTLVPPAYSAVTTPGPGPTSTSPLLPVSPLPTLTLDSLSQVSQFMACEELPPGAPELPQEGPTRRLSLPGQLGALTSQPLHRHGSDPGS

For `CCN(CCO)CCC[C@H](C)Nc1ccnc2cc(Cl)ccc12` [S-HCQ, S-hydroxychloroquine], the pIC50 – broadly, the IC50 on a negative log10 scale, so that one unit is a factor of ten – in data set [1] was 4.96. The “creatinine concentration in plasma” value with MRL/lpr mice [2] (40 mg/kg orally once daily) is reported as “most significant decrease in creatinine concentration”. In addition, in the data set with MRL/lpr mice [2] (40 mg/kg orally once daily, compared to any other treatments, FIG. 4A), the “blood urea nitrogen (BUN) level in plasma” value was “significantly lower”. Besides, the “(%) inhibition” value in data set [3] (25 μM, 48 h) is 13%; in data set [3] (25 μM, 72 h), 25%; in data set [3] (50 μM, 48 h) it was 41%; in data set [3] (50 μM, 72 h), 45%; in data set [3] (100 μM, 48 h), 57%; in data set [3] (100 μM, 72 h), 62%. Also, the “IL-17 pg/mL (mean ± SD)” value in data set [3] (setting [8]) turned out to be 432.6 ± 28.9 pg/mL; in data set [3] (setting [9]) it was 486.5 ± 8.9 pg/mL; in data set [3] (setting [10]) it was 292.0 ± 21.6 pg/mL; in data set [3] (setting [11]), 354.6 ± 52.5 pg/mL; in data set [3] (setting [12]), 215.0 ± 24.6 pg/mL; in data set [3] (setting [13]) it was 248.9 ± 38.9 pg/mL. For the same compound, the “fractional survival compared to vehicle, HCQ and R-HCQ” value is reported as “higher fractional survival” with MRL/lpr mice [4] (20 mg/kg orally once daily, FIG. 2A) and “higher fractional survival” in the data set on MRL/lpr mice [4] (40 mg/kg orally once daily, FIG. 2B). Further, the “average skin lesion score over the test period vs vehicle” value is reported as “significantly reduced skin lesion scores” in the data set with MRL/lpr mice [5] (20 mg/kg (low dose), day 68 to day 111, t-test p<0.005, FIG. 3B) and “significantly reduced skin lesion scores” with MRL/lpr mice [5] (40 mg/kg (high dose), day 68 to day 90, t-test p<0.005, FIG. 3C). For the same compound, the “mean score of skin lesions versus time (onset of skin inflammation and lesions)” value in the data set with MRL/lpr mice [5] (20 mg/kg orally once daily, Day 68 to Day 111, compared to vehicle) is “superior in reducing the onset of skin inflammation and lesions”; in the data set with MRL/lpr mice [5] (40 mg/kg orally once daily, Day 68 to Day 90, compared to vehicle), “superior in reducing the onset of skin inflammation and lesions”.

Compound `CCN(CCO)CCCC(C)Nc1ccnc2cc(Cl)ccc12` (stereo not drawn) [R-HCQ, R-hydroxychloroquine] gave a pIC50 in data set [1] of 5.38. Besides, the “creatinine concentration in plasma” value in the data set with MRL/lpr mice [2] (20 mg/kg orally once daily) and with MRL/lpr mice [2] (40 mg/kg orally once daily) was “lower” in each case. The “(%) inhibition” value in data set [3] (25 μM, 48 h) is given as 5%; in data set [3] (25 μM, 72 h), 13%; in data set [3] (50 μM, 48 h) it was 42%; in data set [3] (50 μM, 72 h) it was 50%; in data set [3] (100 μM, 48 h), 69%; in data set [3] (100 μM, 72 h), 72%. Moreover, the “IL-17 pg/mL (mean ± SD)” value in data set [3] (setting [8]) turned out to be 471.6 ± 32.9 pg/mL; in data set [3] (setting [9]), 564.0 ± 72.9 pg/mL; in data set [3] (setting [10]) it was 289.4 ± 34.7 pg/mL; in data set [3] (setting [11]), 326.8 ± 33.6 pg/mL; in data set [3] (setting [12]) it was 154.0 ± 18.1 pg/mL; in data set [3] (setting [13]), 179.2 ± 31.8 pg/mL.

`C[C@H]1C[C@@H]2[C@H]([C@@H](O)C[C@@]3(C)[C@H]2CC[C@]3(O)C(=O)CO)[C@@]2(C)C=CC(=O)C=C12` [methylprednisolone]: the “IL-17 pg/mL (mean ± SD)” value in data set [3] (5 μM, 48 h, PMA/ionomycin-stimulated PBMC) was determined as 266.7 ± 15.3 pg/mL; in data set [3] (5 μM, 72 h, PMA/ionomycin-stimulated PBMC) it was 282.0 ± 37.6 pg/mL. Moreover, the inhibition – broadly, the relative decrease from the control value, in per cent – at 5 µM in data set [3] (Homo sapiens, 5 μM, 48 h) amounted to 46%; in data set [3] (Homo sapiens, 5 μM, 72 h), 57%.

Take `CCN(CCO)CCCC(C)Nc1ccnc2cc(Cl)ccc12` (racemic) [HCQ, Hydroxychloroquine]: the pIC50 in data set [6] was 5.32; in data set [3] (Homo sapiens, PMA/ionomycin-stimulated PBMC, 48 h or 72 h, read-out: absolute IC50 of IL-17 inhibition), 4.00 to 4.30. The “creatinine concentration in plasma” value in the data set with MRL/lpr mice [2] (20 mg/kg orally once daily) is reported as “lower”. For the same compound, the “IL-17 pg/mL (mean ± SD)” value in data set [3] (setting [8]) came to 480.4 ± 13.1 pg/mL; in data set [3] (setting [9]), 502.4 ± 20.7 pg/mL; in data set [3] (setting [10]), 344.8 ± 12.2 pg/mL; in data set [3] (setting [11]), 341.1 ± 47.4 pg/mL; in data set [3] (setting [12]), 214.5 ± 15.3 pg/mL; in data set [3] (setting [13]), 203.0 ± 10.8 pg/mL. Further, the inhibition at 25 µM in data set [3] (Homo sapiens, 25 μM, 48 h) came out at 3%; in data set [3] (Homo sapiens, 25 μM, 72 h), 23%. The inhibition at 50 µM turned out to be 30% in data set [3] (Homo sapiens, 50 μM, 48 h) and 48% in data set [3] (Homo sapiens, 50 μM, 72 h). For the same compound, the inhibition at 100 µM stood at 57% in data set [3] (Homo sapiens, 100 μM, 48 h) and 69% in data set [3] (Homo sapiens, 100 μM, 72 h). The “mean body weight vs vehicle” value in data set [7] (20 mg/kg orally once daily, day 0 to day 111, FIG. 1A) is listed as “No obvious difference in mean body weight”; in data set [7] (40 mg/kg orally once daily, day 0 to day 90, FIG. 1B), “No obvious difference in mean body weight”.

The record behind these values is patent publication US20210369699A1, “TREATMENT OF LUPUS ERYTHEMATOSUS USING S-HYDROXYCHLOROQUINE” (Genovate Biotechnology Co. Ltd., priority 2020, published 2021).
